Literature values in patent publication US20240398972A1, “METHODS FOR PRODUCING ANTIBODY-LINKER CONJUGATES” (ARARIS BIOTECH AG, priority 2021, published 2024).

What was measured:
various tumor cell lines = details: cytostatic effects
[1] = biological target: DNA-dependent RNA polymerase II (Homo sapiens, UniProt P24928); details: complex amanitin / RNA-polymerase II, not covalently bound

Row | Molecule | IC50 (various tumor cell lines) | Kd [1]
1 | CC[C@H](C)[C@H](NC(=O)[C@H]1CCCCN1C)C(=O)N(COC(=O)CC(C)C)[C@H](C[C@@H](OC(C)=O)c1nc(C(=O)N[C@@H](Cc2ccc(O)cc2)C[C@H](C)C(=O)O)cs1)C(C)C [Tubulysin A] | picomolar range | 
2 | amanitin |  | 3 nM
